Measurements: patent US11225469B2, “Inhibitors of phosphoglycerate dehydrogenase (PHGDH) and uses thereof” (Whitehead Institute for Biomedical Research, priority 2015, dated 2022)

target: PHGDH (Homo sapiens (Human), UniProt O43175); experiment: PHGDH inhibition, coupled assay with PSAT1/PSPH and diaphorase/resazurin readout; assay type: biochemical; conditions: Table E9; mixture with PSAT1, PSPH; diaphorase/resazurin reporter
Sequence (O43175 whole entry): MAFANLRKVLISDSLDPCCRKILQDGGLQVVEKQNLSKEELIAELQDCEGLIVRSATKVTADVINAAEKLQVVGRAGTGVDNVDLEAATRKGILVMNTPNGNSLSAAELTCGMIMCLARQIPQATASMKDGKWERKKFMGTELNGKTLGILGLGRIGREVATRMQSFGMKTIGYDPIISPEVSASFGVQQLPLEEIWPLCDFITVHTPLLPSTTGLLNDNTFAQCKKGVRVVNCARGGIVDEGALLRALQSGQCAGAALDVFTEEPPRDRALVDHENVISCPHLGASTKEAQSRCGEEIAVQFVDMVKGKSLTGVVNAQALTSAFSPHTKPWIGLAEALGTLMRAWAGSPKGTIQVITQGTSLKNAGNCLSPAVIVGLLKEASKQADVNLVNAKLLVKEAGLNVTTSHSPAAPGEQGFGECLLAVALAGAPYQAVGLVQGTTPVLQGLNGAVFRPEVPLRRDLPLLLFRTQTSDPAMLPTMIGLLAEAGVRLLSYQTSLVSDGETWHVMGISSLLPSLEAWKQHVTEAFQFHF

Structure (SMILES)	IC50
COc1ccccc1CN1CCN(C(=S)Nc2cc(C)cc(C)n2)CC1 [Compound 286]	10 to 20 µM
Cc1cc(C)nc(NC(=S)N2CCN(Cc3ccc(F)cc3)CC2)c1 [Compound 279]	10 to 20 µM
Cc1cc(C)nc(NC(=S)N2CCN(Cc3ccc(C(F)(F)F)cc3)C(C)C2)c1 (stereo not shown) [Compound 275]	< 5 µM
Cc1cc(C)nc(NC(=S)N2CCN(Cc3ccc(C(F)(F)F)cc3)[C@H](C)C2)c1 [Compound 298]	< 5 µM
COc1cccc(NC(=S)N2CCN(c3cccc(C(F)(F)F)c3)CC2)n1 [Compound 38]	5 to 10 µM
O=C(Nc1cc2ccccc2cn1)N1CCN(c2cccc(C(F)(F)F)c2)CC1 [Compound 152]	≥ 20 µM
Cc1cc(C)nc(NC(=S)N2CCN(c3cc4ccccc4cn3)CC2)c1 [Compound 145]	≥ 20 µM
FC(F)(F)c1cccc(N2CCN(C(=S)Nc3nc4ccc(C(F)(F)F)cc4[nH]3)CC2)c1 [Compound 246]	5 to 10 µM
COc1cc(N2CCN(C(=S)Nc3cc(C)cc(C)n3)CC2)cc(C(F)(F)F)c1 [Compound 136]	10 to 20 µM
COc1ccccc1N[S+](=O)([O-])c1cc(NC(=O)c2ccc3ccccc3n2)ccc1N1CCCC1 [Compound 249]	≥ 20 µM
Cc1ccnc(NC(=S)N2CC3CN(c4ccc(Cl)cc4C(F)(F)F)CC3C2)c1 (stereo not shown) [Compound 224]	≥ 20 µM
Cc1cc(C)nc(NC(=S)N2CCN(Cc3ccccc3C)CC2)c1 [Compound 276]	≥ 20 µM
COc1cc(OC)cc(N2CCN(C(=S)Nc3cc(C)cc(C)n3)CC2)c1 [Compound 216]	10 to 20 µM
Cc1ccnc(NC(=S)N2CCN(c3ccc(Cl)cc3)CC2)c1 [Compound 8]	≥ 20 µM
S=C(Nc1cc(Cl)ccn1)N1CCN(c2ccc3ccccc3n2)CC1 [Compound 203]	≥ 20 µM
Cc1cc(C)nc(NC(=S)N2CCN(c3ccc(Cl)c(Cl)c3Cl)CC2)c1 [Compound 221]	≥ 20 µM
COC(=O)c1ccnc(NC(=S)N2CCN(c3cccc(C(F)(F)F)c3)CC2)c1 [Compound 28]	< 5 µM
Cc1cc(C)nc(NC(=S)N2CCN(Cc3ccccc3Br)CC2)c1 [Compound 285]	10 to 20 µM
Cc1cc(C)nc(NC(=S)N2CCN(c3cccc(OC(F)F)c3)CC2)c1 [Compound 135]	< 5 µM
Cc1cc(C)nc(NC(=S)N2CCN(Cc3ccccc3F)CC2)c1 [Compound 288]	10 to 20 µM
Cc1ccnc(NC(=S)N2CCCN(c3cccc(C(F)(F)F)c3)CC2)c1 [Compound 49]	10 to 20 µM
Cc1cc(C)nc(NC(=S)N2CCN(C3=Nc4ccccc4Oc4ccccc43)CC2)c1 [Compound 154]	≥ 20 µM

Structure (SMILES)	IC50
S=C(Nc1cc(Cl)ccn1)N1CCN(c2cc(Cl)cc(Cl)c2)CC1 [Compound 197]	≥ 20 µM
COc1ccc(NC(=S)N2CCN(c3cccc(C(F)(F)F)c3)CC2)nc1 [Compound 37]	≥ 20 µM
FC(F)(F)c1cccc(N2CCN(C(=S)Nc3cc[nH]n3)CC2)c1 [Compound 237]	≥ 20 µM
Cc1cc(C)cc(N2CCN(C(=S)Nc3cc(C)cc(C)n3)CC2)c1 [Compound 213]	10 to 20 µM
Cc1ccnc(NC(=S)N2CCN(c3cccc(N(C)C)c3)CC2)c1 [Compound 6]	10 to 20 µM
Cc1cc(C)nc(NC(=S)N2CCN(CC3CCCCC3)CC2)c1 [Compound 255]	< 5 µM
Cc1cc(C)nc(NC(=S)N2CCN(c3cc(C#N)cc(C#N)c3)CC2)c1 [Compound 205]	≥ 20 µM
Cc1cc2nc(NC(=S)N3CCN(c4cccc(C(F)(F)F)c4)CC3)[nH]c2cc1C [Compound 244]	< 5 µM
FC(F)(F)c1cccc(N2CCN(C(=S)Nc3ccccn3)CC2)c1 [Compound 35]	5 to 10 µM
Cc1cc(C)nc(NC(=S)N2CCN(c3ccc(Cl)cc3C(F)(F)F)CC2)c1 [Compound 210]	10 to 20 µM
FC(F)(F)c1cccc(N2CCN(C(=S)Nc3cccnc3)CC2)c1 [Compound 30]	< 5 µM
Cc1cc(C)nc(NC(=S)N2CCC(Nc3cccc(C(F)(F)F)c3)CC2)c1 [Compound 250]	< 5 µM
Cc1cc(C)nc(NC(=S)N2CCCC(Nc3cccc(C(F)(F)F)c3)C2)c1 (stereo not shown) [Compound 251]	< 5 µM
Cc1cc(C)nc(NC(=S)N2CCN(c3cccc4nccn34)CC2)c1 [Compound 150]	≥ 20 µM
Cc1cccc(CN2CCN(C(=S)Nc3cc(C)cc(C)n3)CC2)c1 [Compound 291]	< 5 µM
Cc1nc(CN(C)c2ncnc3ccc(-c4ccc5[nH]ncc5c4)cc23)cs1 [Compound 222]	≥ 20 µM
Cc1cccc(N2CCN(C(=S)Nc3cc(C)ccn3)CC2)c1 [Compound 39]	10 to 20 µM
Cc1cc(C)nc(NC(=S)N2CCN(c3ccc([S+](C)(=O)[O-])cc3F)CC2)c1 [Compound 109]	≥ 20 µM
Cc1cc(C)nc(NC(=S)N2CCN(c3nccs3)CC2)c1 [Compound 87]	≥ 20 µM
COc1ccnc(NC(=S)N2CCN(c3ccc(Cl)c(Cl)c3)CC2)c1 [Compound 182]	5 to 10 µM
Cc1cc(C)nc(NC(=S)N2CCN(c3ccc(Cl)cc3[S+](C)(=O)[O-])CC2)c1 [Compound 115]	10 to 20 µM
Cc1cccc(NC(=S)N2CCN(c3cccc(C(F)(F)F)c3)CC2)c1 [Compound 23]	≥ 20 µM

Structure (SMILES)	IC50
Cc1ccnc(NC(=S)N2CCN(c3ccc(C#N)cc3)CC2)c1 [Compound 10]	≥ 20 µM
Cc1cc(C)nc(NC(=S)N2CCN(c3cc(Cl)c(Cl)c(Cl)c3)CC2)c1 [Compound 206]	≥ 20 µM
Cc1ccnc(NC(=S)N2CCN(c3cccc([N+](=O)[O-])c3)CC2)c1 [Compound 5]	≥ 20 µM
Cc1cc(C)nc(NC(=S)N2CCN(c3nccc(C(F)(F)F)n3)CC2)c1 [Compound 117]	< 5 µM
Cc1cc(C)nc(NC(=S)N2CCN(c3nc(C)cnc3C)CC2)c1 [Compound 104]	≥ 20 µM
Cc1cc(C)nc(NC(=S)N2CCN(c3nc4ccccc4s3)CC2)c1 [Compound 106]	10 to 20 µM
COc1cccc(NC(=S)N2CCN(c3cc(C(F)(F)F)cc(C(F)(F)F)c3)CC2)n1 [Compound 188]	< 5 µM
Cc1cc(C)nc(NC(=S)N2CCN(c3ccc4c(c3)OCO4)CC2)c1 [Compound 167]	≥ 20 µM
Cc1cc(C)nc(NC(=S)N2CCN(c3ccc(C(=O)O)cc3)CC2)c1 [Compound 101]	≥ 20 µM
Cc1ccnc(NC(=S)N2CCN(c3ccc(Cl)c(Cl)c3)CC2)c1 [Compound 173]	5 to 10 µM
Cc1cc(C)nc(NC(=S)N2CCN(C3CCCCC3)CC2)c1 [Compound 253]	10 to 20 µM
Cc1cc(C)nc(NC(=S)N2CCN(c3nc4ccccc4o3)CC2)c1 [Compound 105]	10 to 20 µM
Cc1cc(C)nc(NC(=S)N2CCN(c3ncccc3Cl)CC2)c1 [Compound 79]	10 to 20 µM
Cc1cc(C)nc(NC(=S)N2CCC(C(=O)N3CCOCC3)CC2)c1 [Compound 257]	≥ 20 µM
Cc1ccnc(NC(=S)N2CCc3cccc(C(F)(F)F)c3C2)c1 [Compound 59]	10 to 20 µM
COc1ccc(N2CCN(C(=S)Nc3cc(C)ccn3)CC2)cc1 [Compound 12]	≥ 20 µM
Cc1ccnc(NC(=S)N2CCN(c3ccc(O)cc3)CC2)c1 [Compound 13]	≥ 20 µM
COc1ccnc(NC(=S)N2CCN(c3cccc(C(F)(F)F)n3)CC2)c1 [Compound 184]	5 to 10 µM
Cc1cc(C)nc(NC(=S)N2CCN(Cc3ccc(C(F)(F)F)cc3)[C@@H](C)C2)c1 [Compound 297]	< 5 µM
Cc1cc(C)nc(NC(=S)N2CCN(c3ccc4nncn4c3)CC2)c1 [Compound 161]	≥ 20 µM
Cc1cc(C)nc(NC(=S)N2CCN(c3ccc4occc4c3)CC2)c1 [Compound 164]	10 to 20 µM
Cc1ccnc(NC(=S)N2CCc3cc(C(F)(F)F)ccc3C2)c1 [Compound 61]	10 to 20 µM

Structure (SMILES)	IC50
FC(F)(F)c1cccc(N2CCN(C(=S)Nc3cnccn3)CC2)c1 [Compound 128]	≥ 20 µM
Cc1cc(C)nc(NC(=S)N2CCN(c3ccc(F)cc3F)CC2)c1 [Compound 90]	5 to 10 µM
Cc1cc(C)nc(NC(=S)N2CCN(c3ccccc3C#N)CC2)c1 [Compound 89]	10 to 20 µM
Cc1cc(C)nc(NC(=S)N2CCN(Cc3ccccc3C(F)(F)F)CC2)c1 [Compound 278]	10 to 20 µM
Cc1ccnc(NC(=S)N2CC3CN(c4cccc(C(F)(F)F)c4)CC3C2)c1 (stereo not shown) [Compound 45]	10 to 20 µM
Cc1ccnc(NC(=S)N2CCN(c3cccc(Cl)c3Cl)CC2)c1 [Compound 171]	5 to 10 µM
Cc1ccnc(NC(=S)N2CCN(c3ccc(C(F)(F)F)cc3[N+](=O)[O-])CC2)c1 [Compound 174]	5 to 10 µM
Cc1ccnc(NC(=S)N2CCN(c3ccccc3C(F)(F)F)CC2)c1 [Compound 41]	5 to 10 µM
FC(F)(F)c1cccc(N2CCN(C(=S)Nc3nc(-c4ccccc4)c[nH]3)CC2)c1 [Compound 230]	< 5 µM
COc1cccc(NC(=S)N2CCN(c3ccc(Cl)c(Cl)c3)CC2)n1 [Compound 191]	≥ 20 µM
COc1ccc2nc(NC(=S)N3CCN(c4cccc(C(F)(F)F)c4)CC3)[nH]c2c1 [Compound 240]	≥ 20 µM
COc1cccc(NC(=S)N2CCN(c3ncc(C(F)(F)F)cc3Cl)CC2)n1 [Compound 195]	< 5 µM
Cc1cc(C)nc(NC(=S)N2CCCC(NC(=O)c3ccc(C(F)(F)F)cc3)C2)c1 (stereo not shown) [Compound 264, N-(1-((4,6-dimethylpyridin-2-yl)carbamothioyl)piperidin-3-yl)-4-(trifluoromethyl)benzamide]	< 5 µM
Cc1cc(C)nc(NC(=S)N2CCN(Cc3ccc(C(F)(F)F)cc3)C(C(=O)O)C2)c1 (stereo not shown) [Compound 295, 4-((4,6-dimethylpyridin-2-yl)carbamothioyl)-1-(4-(trifluoromethyl)benzyl)piperazine-2-carboxylic acid]	5 to 10 µM
Cc1ccc(CN2CCN(C(=S)Nc3cc(C)cc(C)n3)CC2)cc1 [Compound 292]	< 5 µM
Cc1ccnc(NC(=S)N2CCN(c3cccc(C(F)(F)F)c3)C[C@@H]2C)c1 [Compound 48]	10 to 20 µM
Cc1cc(C)nc(NC(=S)N2CCN(Cc3ccccc3)CC2)c1 [Compound 274]	10 to 20 µM
S=C(Nc1cc(Cl)ccn1)N1CCN(c2ccc(Cl)cc2Cl)CC1 [Compound 199]	≥ 20 µM
Cc1cc(C)nc(NC(=S)N2CCN(c3cccc4cnccc34)CC2)c1 [Compound 147]	10 to 20 µM
